# From ChEMBL document CHEMBL4619799, “Mechanistic Insight into Antiretroviral Potency of 2'-Deoxy-2'-β-fluoro-4'-azidocytidine (FNC) with a Long-Lasting Effect on HIV-1 Prevention” (J Med Chem, 2020)
# Calls of active or inactive are those of the source. The calls are words filed in the database; no cut-off is given here. Peptide text beside a SMILES is read from it. * marks the point of attachment. Cbz = O=C(OCc1ccccc1)*
# Columns and labels:
# [1] = test system: Human immunodeficiency virus 1; experiment: Antiviral activity against VSVG pseudotyped HIV1 infected in HEK293 cells preincubated for 3 hrs followed by compound washout and subsequent compound redosing and measured after 72 hrs by luciferase reporter gene based assay; assay type: functional, organism-based; conditions: Human immunodeficiency virus 1, HEK293
# [2] = Cytotoxicity against HEK293 cells assessed as cell viability by MTT assay; assay type: cell-based; conditions: human
# [3] = molecular target: Virion infectivity factor (Human immunodeficiency virus type 1 group M subtype B (isolate NY5)(HIV-1)) (UniProt P12504); experiment: Inhibition of HIV1 HA-tagged Vif expressed in HEK293T cells co-expressing Myc-tagged pcDNA-APOBEC3G and pcDNA-ubiquitin-His assessed as reduction in Vif-mediated A3G polyubiquitination at 10 uM measured after 16 hrs by Western blot analysis; assay type: cell-based; conditions: Human immunodeficiency virus 1, HEK-293T
# Sequence of Virion infectivity factor (Human immunodeficiency virus type 1 group M subtype B (isolate NY5)(HIV-1)) (P12504 whole entry): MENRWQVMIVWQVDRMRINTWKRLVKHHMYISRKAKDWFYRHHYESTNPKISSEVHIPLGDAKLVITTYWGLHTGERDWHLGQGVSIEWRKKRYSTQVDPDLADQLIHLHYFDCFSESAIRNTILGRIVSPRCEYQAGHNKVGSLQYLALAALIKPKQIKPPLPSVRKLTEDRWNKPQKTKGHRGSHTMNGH
# [4] = molecular target: Virion infectivity factor (Human immunodeficiency virus type 1 group M subtype B (isolate NY5)(HIV-1)) (UniProt P12504); experiment: Inhibition of HIV1 HA-tagged Vif expressed in HEK293T cells co-expressing Myc-tagged pcDNA-APOBEC3G assessed as reduction in Vif-mediated A3G degradation at 10 uM measured after 16 hrs by Western blot analysis; assay type: cell-based; conditions: Human immunodeficiency virus 1, HEK-293T
# [5] = Cytotoxicity against human Hut/CCR5 cells assessed as reduction in cell viability at 1000 to 10000 nM measured after 120 hrs by MTT assay; assay type: cell-based; conditions: 10 µM
# [6] = Binding affinity to HIV1 Vif and CBFbeta-ELOB-ELOC complex (unknown origin) by CM5 chip based assay
# [7] = Cmax in monkey plasma at 20 mg/kg, po administered as single dose by LC-MS/MS analysis; assay type: ADME, organism-based, Macaca mulatta; parameters: dose 20 mg/kg, route oral; conditions: rhesus monkey
# [8] = Tmax in monkey plasma at 20 mg/kg, po administered as single dose by LC-MS/MS analysis; assay type: ADME, organism-based, Macaca mulatta; conditions: rhesus monkey
# [9] = molecular target: Virion infectivity factor (Human immunodeficiency virus type 1 group M subtype B (isolate NY5)(HIV-1)) (UniProt P12504); experiment: Inhibition of HIV1 HA-tagged Vif expressed in HEK293T cells co-expressing Myc-tagged pcDNA-APOBEC3G assessed as reduction in Vif-mediated A3G degradation at 10000 nM measured after 48 hrs by Western blot analysis; assay type: cell-based; conditions: Human immunodeficiency virus 1, HEK-293T
# [10] = AUC (0 to 24 hrs) in monkey plasma at 20 mg/kg, po administered as single dose by LC-MS/MS analysis; assay type: ADME, organism-based, Macaca mulatta; parameters: dose 20 mg/kg, time < 24 hr, route oral; conditions: rhesus monkey
# [11] = test system: Human immunodeficiency virus 1; experiment: (§1) Antiviral activity against JRFL pseudotyped HIV1 infected in human Hut/CCR5 cells assessed as time needed to reach 50% reduction of virus infection at 10000 nM incubated with cells for 4 hrs prior to compound washout followed by viral infection and measured after 72 hrs by luciferase reporter gene assay; assay type: functional
# [12] = Cmax in monkey PBMC assessed as 3TC-TP level at 20 mg/kg, po administered as single dose by LC-MS/MS analysis; assay type: ADME, organism-based, Macaca mulatta; parameters: dose 20 mg/kg, route oral; conditions: rhesus monkey, in vivo
# [13] = Tmax in monkey PBMC assessed as 3TC-TP level at 20 mg/kg, po administered as single dose by LC-MS/MS analysis; assay type: ADME, organism-based, Macaca mulatta; conditions: rhesus monkey, in vivo
# [14] = molecular target: Virion infectivity factor (Human immunodeficiency virus type 1 group M subtype B (isolate NY5)(HIV-1)) (UniProt P12504); experiment: Inhibition of HIV1 HA-tagged Vif expressed in HEK293T cells co-expressing eGFP-tagged pcDNA-APOBEC3G assessed as reduction in Vif-mediated A3G degradation at 10000 nM measured after 48 hrs by flow cytometry; assay type: cell-based; conditions: Human immunodeficiency virus 1, HEK-293T
# [15] = test system: Human immunodeficiency virus 1; experiment: as §1, with “1000” for “10000”; assay type: functional
# [16] = Cmax in monkey plasma at 20 mg/kg, po administered as single dose measured after 72 hrs by LC-MS/MS analysis; assay type: ADME, organism-based, Macaca mulatta; parameters: dose 20 mg/kg, route oral; conditions: rhesus monkey
# [17] = AUC (0 to 24 hrs) in monkey PBMC assessed as 3TC-TP level at 20 mg/kg, po administered as single dose by LC-MS/MS analysis; assay type: ADME, organism-based, Macaca mulatta; parameters: time < 24 hr, dose 20 mg/kg, route oral; conditions: rhesus monkey, in vivo
SMILES,EC50 [1],CC50 [2],also measured
CNc1ccn([C@@H]2O[C@@](CO)(N=[N+]=[N-])[C@@H](O)[C@@H]2F)c(=O)n1,6.7 µM,≥ 25 µM,–
CCNc1ccn([C@@H]2O[C@@](CO)(N=[N+]=[N-])[C@@H](O)[C@@H]2F)c(=O)n1,> 10 µM,–,–
[N-]=[N+]=N[C@]1(CO)O[C@@H](n2ccc(NC3CCCCC3)nc2=O)[C@@H](F)[C@@H]1O,> 10 µM,–,–
CN(C)c1ccn([C@@H]2O[C@@](CO)(N=[N+]=[N-])[C@@H](O)[C@@H]2F)c(=O)n1,13 µM,≥ 25 µM,–
CCN(CC)c1ccn([C@@H]2O[C@@](CO)(N=[N+]=[N-])[C@@H](O)[C@@H]2F)c(=O)n1,> 10 µM,–,–
[N-]=[N+]=N[C@]1(CO)O[C@@H](n2ccc(N3CCCC3)nc2=O)[C@@H](F)[C@@H]1O,> 10 µM,–,–
[N-]=[N+]=N[C@]1(CO)O[C@@H](n2ccc(NCCCO)nc2=O)[C@@H](F)[C@@H]1O,> 10 µM,–,–
[N-]=[N+]=N[C@]1(CO)O[C@@H](n2ccc(NCc3cccnc3)nc2=O)[C@@H](F)[C@@H]1O,1.3 µM,≥ 25 µM,–
COc1ccc(Nc2ccn([C@@H]3O[C@@](CO)(N=[N+]=[N-])[C@@H](O)[C@@H]3F)c(=O)n2)c(OC)c1,5.2 µM,≥ 25 µM,–
[N-]=[N+]=N[C@]1(CO)O[C@@H](n2ccc(NO)nc2=O)[C@@H](F)[C@@H]1O,0.7 µM,≥ 25 µM,–
[N-]=[N+]=N[C@]1(CO)O[C@@H](n2ccc(N(CCO)CCO)nc2=O)[C@@H](F)[C@@H]1O,0.8 µM,≥ 25 µM,–
CCONc1ccn([C@@H]2O[C@@](CO)(N=[N+]=[N-])[C@@H](O)[C@@H]2F)c(=O)n1,> 10 µM,–,–
[N-]=[N+]=N[C@]1(CO)O[C@@H](n2ccc(NCc3ccco3)nc2=O)[C@@H](F)[C@@H]1O,0.7 µM,≥ 25 µM,–
[N-]=[N+]=N[C@]1(CO)O[C@@H](n2ccc(N3CCOCC3)nc2=O)[C@@H](F)[C@@H]1O,> 10 µM,–,–
[N-]=[N+]=N[C@]1(CO)O[C@@H](n2ccc(NCCc3ccc(O)cc3)nc2=O)[C@@H](F)[C@@H]1O,5.7 µM,≥ 25 µM,–
[N-]=[N+]=N[C@]1(CO)O[C@@H](n2ccc(NCCO)nc2=O)[C@@H](F)[C@@H]1O,> 10 µM,–,–
CON(C)c1ccn([C@@H]2O[C@@](CO)(N=[N+]=[N-])[C@@H](O)[C@@H]2F)c(=O)n1,> 10 µM,–,–
CONc1ccn([C@@H]2O[C@@](CO)(N=[N+]=[N-])[C@@H](O)[C@@H]2F)c(=O)n1,> 10 µM,–,–
CC(C)C[C@@H](C=O)NC(=O)[C@H](CC(C)C)NC(=O)[C@H](CC(C)C)NC(=O)OCc1ccccc1 (Cbz-Leu-Leu-Leu-aldehyde),–,–,inhibition [3]: Active; inhibition [4]: Active
Nc1ccn([C@@H]2CS[C@H](CO)O2)c(=O)n1 [LAMIVUDINE],0.3 µM,≥ 25 µM,Activity [5]: Non-Toxic; Kd [6]: 1.51 µM; Cmax [7]: 31300 nM; Tmax [8]: 1 h; inhibition [9]: inactive; AUC(0-t) at 24 h [10]: 395 µM·h; Time [11]: 42.7 to 42.74 h; Cmax [12]: 0.03 nM; Tmax [13]: 1 h; inhibition [14]: inactive; Time [15]: 26.75 h; Cmax [16]: 93.6 nM; AUC [17]: 0.00013 µM·h
